Target: STING (Homo sapiens, UniProt Q86WV6)
Assay: Inhibition of STING-agonist-induced IFN-β release in H596 cells (H596 STING inhibition assay)
Format: cell-based
Conditions: 24h with compound, then 0.3 µM GSK STING agonist, 6h; ELISA
Description: Cell supernatants were analysed for IFN-β release using DuoSet human IFN-β ELISA (R&D systems, DY-814) following manufactures protocol except using 96-well, half-volume plates from Corning and subsequently use half volume for all steps throughout the protocol. In brief, plates were coated o/n with a 130x dilution of capturing antibody in PBS. Wells were washed 3x with PBS-T20 followed by blocking with 1% BSA diluted in TBS-T20 for 1h. Wells were washed 3x with PBS-T20 and standards (n=2) and samples (n=3) were added to the plate and incubated for 2h at rt. Wells were washed 3x with PBS-T20 and detection antibody diluted 1:60 in 1% BSA in PBS was added to each well and incubated for 2h at rt. Plates were washed 3x with PBS-T20 and Streptavidin-HRP diluted 1:40 in 1% BSA in PBS was added pr well and incubated for 30 min at rt. The wells were washed 4x with PBS-T20 and TMB One Substrate (Promega) was added and incubated for 5-10 min in the dark. When fully developed, 1 mmol/L Sulfuric acid was added to stop the reaction. Signals were measured using BioTek Synergy H1 plate reader at 450nm and 570nm (reference).
Raw data values were quantified based on the standard curve using blank subtracted Δ450nm-570nm values generated using the Gen5 software connected to the plate reader. Concentrations were plotted into GraphPad Prism to calculate EC50 values using a 4-parameter non-linear regression fitting curve, bottom constrains set for >0.
To determine cellular effects of test compounds, we assessed inhibition of STING-agonist-induced IFN-β release in H596 cells (ATCC, HTB-178). Cells were seeded at a density of 25.000 cells/well in 96-well Nunclon Delta surface treated culture plate in RPMI-1640 growth medium (supplemented with 10% FBS, 1% Pen-strep). Cells were incubated over-night at 37°C 5% CO2 to allow adhesion. Next morning growth medium was renewed and a 10x concentration, 3-step dilution series of test compounds diluted in growth medium (5% DMSO) were added to the appropriate well. Final DMSO concentration was 0.5%. Cells were further incubated for 24h followed by incubation with a 10x concentration of GSK STING agonist (CAS number: 2138299-34-8), final concentration was 0.3 µM. Cells culture plates were further incubated, and supernatants were harvested after 6h and immediately stored at -20°C until determination of IFN-β release.
For ELISA and data analysis, the methods described above for HFF-1 cells were applied.

Sequence of STING (Q86WV6 whole entry): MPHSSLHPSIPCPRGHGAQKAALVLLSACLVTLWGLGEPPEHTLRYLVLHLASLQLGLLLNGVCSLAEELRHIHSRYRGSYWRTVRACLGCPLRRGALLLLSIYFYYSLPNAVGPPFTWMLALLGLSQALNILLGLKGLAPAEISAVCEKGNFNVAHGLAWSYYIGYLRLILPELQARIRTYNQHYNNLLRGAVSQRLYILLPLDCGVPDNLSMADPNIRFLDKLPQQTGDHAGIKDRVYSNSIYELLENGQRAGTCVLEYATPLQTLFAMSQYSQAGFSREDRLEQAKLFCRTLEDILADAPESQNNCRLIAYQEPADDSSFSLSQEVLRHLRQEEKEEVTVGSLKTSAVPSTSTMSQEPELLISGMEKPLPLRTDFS

- EC50: 1000 to 5000 nM
SMILES: CCn1nc(C)cc1C(=O)N=c1n(C)c2cc(C(N)=O)ccc2n1CCC(CCn1c(=NC(=O)c2cc(C)nn2CC)n(C)c2cc(C(N)=O)ccc21)OCC(=O)NCCOCCOCCOCCOCCC(=O)NCCOCCOCCOCCOCCNc1cccc2c1C(=O)N(C1CCC(=O)NC1=O)C2=O (stereo not shown) [Example 16]

From patent EP4663632A1, “COMPOUNDS USEFUL FOR THE MODULATION OF THE ACTIVITY OF STING” (Sulis Therapeutics ApS, priority 2024, dated 2025)
